Source: PMC10770036, “Novel dual inhibitors of PARP and HDAC induce intratumoral STING-mediated antitumor immunity in triple-negative breast cancer” (Cell Death & Disease, 2024)

Tests used:
recombinant HDAC1 = molecular target: T1, recombinant HDAC1 (Homo sapiens, UniProt Q13547); assay: HDAC1 inhibition assay (Ac-peptide-AMC fluorescence); format: biochemical
T1 construct: purchased Active Motif
Protocol: (§1) The in vitro HDAC inhibition assays were carried out by Sundia MediTech Co. Ltd. in Shanghai, China. […] Reactions were stopped with trypsin, and the samples were incubated for another 90 min at 37 °C. […] IC50 values were obtained using GraphPad Prism software.

recombinant HDAC6 = molecular target: T2, recombinant HDAC6 (Homo sapiens, UniProt Q9UBN7); assay: HDAC6 inhibition assay (Ac-peptide-AMC fluorescence); format: biochemical
T2 construct: purchased BPS Bioscience
T2 sequence (Q9UBN7 1-1215): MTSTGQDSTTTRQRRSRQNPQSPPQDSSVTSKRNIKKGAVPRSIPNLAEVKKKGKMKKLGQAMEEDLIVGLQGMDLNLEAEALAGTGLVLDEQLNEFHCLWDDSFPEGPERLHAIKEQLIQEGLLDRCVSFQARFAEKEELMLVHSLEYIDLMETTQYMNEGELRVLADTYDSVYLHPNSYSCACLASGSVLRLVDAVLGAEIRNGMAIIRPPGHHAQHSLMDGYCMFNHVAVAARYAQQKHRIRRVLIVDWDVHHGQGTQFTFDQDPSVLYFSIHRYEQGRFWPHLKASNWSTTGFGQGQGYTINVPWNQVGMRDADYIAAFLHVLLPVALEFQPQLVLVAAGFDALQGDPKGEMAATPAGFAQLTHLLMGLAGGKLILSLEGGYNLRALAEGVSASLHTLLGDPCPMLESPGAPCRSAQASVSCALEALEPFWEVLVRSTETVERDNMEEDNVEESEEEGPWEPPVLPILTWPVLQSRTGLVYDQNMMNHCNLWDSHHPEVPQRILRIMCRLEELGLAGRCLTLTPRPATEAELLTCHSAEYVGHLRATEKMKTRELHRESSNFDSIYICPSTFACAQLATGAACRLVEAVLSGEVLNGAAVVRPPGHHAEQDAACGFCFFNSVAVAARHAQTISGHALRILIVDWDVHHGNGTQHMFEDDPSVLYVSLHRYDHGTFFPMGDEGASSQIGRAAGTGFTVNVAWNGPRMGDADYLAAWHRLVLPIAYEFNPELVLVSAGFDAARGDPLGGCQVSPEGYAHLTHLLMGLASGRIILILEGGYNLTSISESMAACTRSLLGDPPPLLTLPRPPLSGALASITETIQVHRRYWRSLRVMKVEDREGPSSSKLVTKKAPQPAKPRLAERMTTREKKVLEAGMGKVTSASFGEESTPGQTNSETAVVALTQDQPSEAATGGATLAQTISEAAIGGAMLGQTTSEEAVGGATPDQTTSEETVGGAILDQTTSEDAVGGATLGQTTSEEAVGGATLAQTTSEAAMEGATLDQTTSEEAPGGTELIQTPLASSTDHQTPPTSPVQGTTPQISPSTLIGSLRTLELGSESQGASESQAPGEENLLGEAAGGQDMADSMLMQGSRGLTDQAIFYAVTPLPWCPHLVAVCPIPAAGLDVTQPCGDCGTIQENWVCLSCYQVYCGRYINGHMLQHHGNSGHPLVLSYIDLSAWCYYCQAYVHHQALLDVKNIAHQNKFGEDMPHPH
Protocol: as §1

MCF-7 cells = assay: MTT cell viability assay, MCF-7; conditions: Homo sapiens, MCF7, 72 h, read-out: IC50 MCF-7
Protocol: (§3) The viability assay was measured by a 3-(4,5-dimethylthiazol-2-yl)−2,5-diphenyltetrazolium bromide (MTT) assay.
(§4) In brief, cells were seeded at a density of 6,000 cells in 96-well plates and cultured overnight. […] After aspiration of the medium, the formazan crystals were dissolved in 100 μL of DMSO. The absorbance at 490 nm was measured using a microplate reader (BioTek). All these analyses were performed at least three times.

PARP1 = molecular target: T3, PARP1 (Homo sapiens, UniProt P09874); assay: PARP1 enzymatic inhibition assay (PARP1 Colorimetric Assay Kit); format: biochemical
T3 construct: purchased BPS Bioscience 80580
T3 sequence (P09874 whole entry): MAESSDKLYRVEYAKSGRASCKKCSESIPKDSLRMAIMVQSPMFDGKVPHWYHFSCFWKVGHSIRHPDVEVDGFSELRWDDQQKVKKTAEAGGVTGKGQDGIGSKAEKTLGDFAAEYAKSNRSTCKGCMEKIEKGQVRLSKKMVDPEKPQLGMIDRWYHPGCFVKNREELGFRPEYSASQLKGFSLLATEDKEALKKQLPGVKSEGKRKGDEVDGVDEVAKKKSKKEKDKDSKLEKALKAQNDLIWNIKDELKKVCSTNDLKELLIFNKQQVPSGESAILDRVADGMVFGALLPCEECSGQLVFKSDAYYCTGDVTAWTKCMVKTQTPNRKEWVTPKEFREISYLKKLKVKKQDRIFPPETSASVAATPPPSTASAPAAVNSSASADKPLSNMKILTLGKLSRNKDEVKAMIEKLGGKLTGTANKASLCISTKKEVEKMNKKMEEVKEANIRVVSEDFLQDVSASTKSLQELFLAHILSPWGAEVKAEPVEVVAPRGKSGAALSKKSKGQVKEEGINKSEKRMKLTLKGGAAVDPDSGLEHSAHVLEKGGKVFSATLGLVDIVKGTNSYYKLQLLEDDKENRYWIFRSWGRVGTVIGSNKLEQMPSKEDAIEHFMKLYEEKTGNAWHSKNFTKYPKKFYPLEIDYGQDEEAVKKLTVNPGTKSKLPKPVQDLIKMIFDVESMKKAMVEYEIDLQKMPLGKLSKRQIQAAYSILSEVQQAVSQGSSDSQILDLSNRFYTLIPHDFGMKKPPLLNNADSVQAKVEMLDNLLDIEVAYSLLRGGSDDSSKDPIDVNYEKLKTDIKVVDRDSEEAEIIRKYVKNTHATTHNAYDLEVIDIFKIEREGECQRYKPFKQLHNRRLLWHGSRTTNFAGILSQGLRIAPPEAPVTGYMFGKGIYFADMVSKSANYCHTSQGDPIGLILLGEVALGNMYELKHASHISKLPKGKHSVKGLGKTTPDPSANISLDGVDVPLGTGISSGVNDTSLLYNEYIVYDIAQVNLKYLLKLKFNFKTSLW
Protocol: (§2) Briefly, the 1× histone mixture was added to each well and incubated overnight at 4 °C. Each well was washed three times with 200 µL 1× TBST buffer and filled with 200 µL Blocking buffer at room temperature for 90 min. Then, each well was filled with 25 µL of PARP master mixture (5 μL activated DNA + 2.5 μL 10× PARP Assay mixture + 2.5 μL 10× PARP buffer + 15 μL distilled water). Next, 5 µL of the compound of different concentrations was added to each well, and PARP enzyme was added and incubated at room temperature for 1 h. Next, streptavidin HRP solution was added and incubated at room temperature for 30 min. After adding 100 µL of colorimetric HRP substrate to each well, the plate was incubated until a blue color developed in the positive well, which contained PARP enzyme without inhibitors. The reaction was then quenched with 2 M sulfuric acid, and absorbance at 450 nm was measured using a microplate reader (BioTek, Winooski, VT, USA). After calculating the inhibition rate, the IC50 value was determined.

MDA-MB-468 cells = assay: MTT cell viability assay, MDA-MB-468; conditions: Homo sapiens, MDA-MB-468, 72 h, read-out: IC50 MDA-MB-468
Protocol: as §3, §4

MCF-10A cells = assay: MTT cell viability assay, MCF-10A; conditions: Homo sapiens, 72 h, read-out: IC50 MCF-10A
Protocol: as §3, §4

MDA-MB-436 cells = assay: MTT cell viability assay, MDA-MB-436; conditions: Homo sapiens, MDA-MB-436, 72 h, read-out: IC50 MDA-MB-436
Protocol: as §3, §4

MDA-MB-231 cells = assay: MTT cell viability assay, MDA-MB-231; conditions: Homo sapiens, MDA-MB-231, 72 h, read-out: IC50 MDA-MB-231
Protocol: as §3, §4

PARP2 = molecular target: T4, PARP2 (Homo sapiens, UniProt Q9UGN5); assay: PARP2 enzymatic inhibition assay (PARP2 Colorimetric Assay Kit); format: biochemical
T4 construct: purchased BPS Bioscience 80581
T4 sequence (Q9UGN5 whole entry): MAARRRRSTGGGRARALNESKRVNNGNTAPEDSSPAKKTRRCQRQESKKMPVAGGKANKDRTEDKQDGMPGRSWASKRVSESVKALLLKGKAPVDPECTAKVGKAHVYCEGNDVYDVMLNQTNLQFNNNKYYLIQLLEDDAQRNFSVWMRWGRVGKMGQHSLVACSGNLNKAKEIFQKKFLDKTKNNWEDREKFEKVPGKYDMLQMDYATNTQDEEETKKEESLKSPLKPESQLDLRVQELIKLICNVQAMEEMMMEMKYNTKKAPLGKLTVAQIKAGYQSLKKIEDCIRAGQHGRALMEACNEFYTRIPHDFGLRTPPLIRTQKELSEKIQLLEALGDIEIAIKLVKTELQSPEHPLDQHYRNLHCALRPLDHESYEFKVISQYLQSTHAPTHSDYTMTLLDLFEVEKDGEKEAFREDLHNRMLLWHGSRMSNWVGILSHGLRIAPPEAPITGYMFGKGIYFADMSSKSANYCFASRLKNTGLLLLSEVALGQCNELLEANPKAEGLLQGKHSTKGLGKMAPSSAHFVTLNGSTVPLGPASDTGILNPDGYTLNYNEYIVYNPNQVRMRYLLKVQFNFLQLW
Protocol: as §2

RAD51 = assay: Western blot of RAD51 expression in TNBC cells; format: cell-based, human; conditions: alone, 24 h, TNBC cell lines
Protocol: Western blot analysis was performed as previously described, and all western blot analyses were performed at least three times.
Western blot analysis was performed as previously described. Briefly, whole cell or tissue lysates were prepared using ice-cold Nonidet P-40 buffer mixed with protease and phosphatase inhibitors (Roche, IN, USA) and centrifuged at 14,000 × g at 4 °C for 10 min. The protein lysates were fractionated by sodium dodecyl sulfate–polyacrylamide gel electrophoresis (SDS–PAGE) and transferred to polyvinylidene fluoride (PVDF) membranes (Merck, Darmstadt, Germany). Membranes were incubated in 1× TBST buffer containing 5% nonfat powdered milk at room temperature for 2 h. The indicated primary antibody was incubated with PVDF membranes, followed by a washing step using 1× TBST and a secondary antibody conjugated to HRP. Signal detection was carried out using the Western ECL Substrate kit (Bio-Rad, Hercules, CA, USA). […]

CCL5 and CXCL10 mRNA = assay: RT-PCR of CCL5 and CXCL10 mRNA; format: cell-based, human; conditions: MDA-MB-436 and MDA-MB-468 cells, 48 h
Protocol: Total RNA was extracted using the Eastep Super Total RNA Extraction Kit (Promega, Charbonnières, France) according to the manufacturer’s protocol. Reverse transcription was performed using HyperScript RT SuperMix for qPCR (APExBIO, Houston, TX, USA). Gene expression was quantified with Hieff qPCR SYBR Green Master Mix (Yeason) on an ABI 7500 (Applied Biosystems, Grand Island, NY, USA). Data were then analyzed using the 2^-ΔΔCT method. The primers were designed and synthesized by Sangon Biotech, and the sequences are shown in Supporting Information Table S1.

[1] = test system: MDA-MB-436, MDA-MB-231, and MDA-MB-468 cells; assay: Colony formation assay; format: cell-based, human; conditions: low dose
Protocol: MDA-MB-231, MDA-MB-436 and MDA-MB-468 cells were seeded at a density of 2,000 cells in 6-well plates and cultured overnight. […] The cells were fixed with 4% paraformaldehyde (Merck) for 1 h at room temperature and stained with 0.1% crystal violet (Beyotime Biotechnology) for 30 min. Under an inverted phase contrast microscope (Leica Microsystems, Heidelberg, Germany), cell colonies were photographed at 5× magnification. All these analyses were performed at least three times.

T1 sequence (Q13547 whole entry): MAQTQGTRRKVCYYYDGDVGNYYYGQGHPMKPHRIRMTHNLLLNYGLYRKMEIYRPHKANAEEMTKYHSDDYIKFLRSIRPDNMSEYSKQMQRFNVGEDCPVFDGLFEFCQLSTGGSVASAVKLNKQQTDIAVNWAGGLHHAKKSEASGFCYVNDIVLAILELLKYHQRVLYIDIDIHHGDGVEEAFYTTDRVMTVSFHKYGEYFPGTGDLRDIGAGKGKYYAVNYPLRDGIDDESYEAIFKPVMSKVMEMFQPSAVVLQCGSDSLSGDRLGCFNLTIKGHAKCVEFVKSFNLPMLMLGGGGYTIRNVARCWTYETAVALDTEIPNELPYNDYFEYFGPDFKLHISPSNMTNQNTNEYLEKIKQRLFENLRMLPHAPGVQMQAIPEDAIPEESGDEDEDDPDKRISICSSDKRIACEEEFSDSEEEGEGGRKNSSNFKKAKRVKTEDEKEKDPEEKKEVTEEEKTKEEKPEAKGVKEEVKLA

| Compound | IC50 (recombinant HDAC1) | IC50 (recombinant HDAC6) | IC50 (MCF-7 cells) | IC50 (PARP1) | IC50 (MDA-MB-468 cells) | IC50 (MCF-10A cells) | IC50 (MDA-MB-436 cells) | IC50 (MDA-MB-231 cells) | IC50 (PARP2) | RAD51 expression (RAD51) | mRNA levels of CCL5 and CXCL10 (CCL5 and CXCL10 mRNA) | clonogenicity ([1]; BRCA1- and HRR-deficient MDA-MB-436 cells) | clonogenicity ([1]; MDA-MB-231 and MDA-MB-468 cells) |
| --- | --- | --- | --- | --- | --- | --- | --- | --- | --- | --- | --- | --- | --- |
| Nc1ccccc1NC(=O)CCCN1CCN(C(=O)c2cc(Cc3n[nH]c(=O)c4ccccc34)ccc2F)CC1 [Compound B601] | > 10000 nM | > 10000 nM |  |  |  |  |  |  |  |  |  |  |  |
| Nc1ccccc1NC(=O)CCc1ccc(CN2CCN(C(=O)c3cc(Cc4n[nH]c(=O)c5ccccc45)ccc3F)CC2)cc1 [Compound B301] | > 10000 nM | > 10000 nM | 3530 ± 1110 nM | 11.4 nM | 1750 ± 370 nM | 30000 ± 9800 nM | 1730 ± 820 nM | 1960 ± 630 nM | 70.4 nM |  |  |  |  |
| Nc1ccccc1NC(=O)Cc1ccc(CN2CCN(C(=O)c3cc(Cc4n[nH]c(=O)c5ccccc45)ccc3F)CC2)cc1 [Compound B201] | 60 nM | > 10000 nM | 5300 ± 1230 nM | 7.55 nM | 1350 ± 550 nM | 14000 ± 2450 nM | 970 ± 730 nM | 380 ± 80 nM | 13.8 nM |  |  |  |  |
| Nc1cc(F)ccc1NC(=O)CN1CCN(C(=O)c2cc(Cc3n[nH]c(=O)c4ccccc34)ccc2F)CC1 [Compound B402] | > 10000 nM | > 10000 nM |  |  |  |  |  |  |  |  |  |  |  |
| Nc1cc(F)ccc1NC(=O)c1ccc(CNC(=O)/C=C/c2cccnc2)cc1 [Chidamide, chidamide, reference compound] |  |  | 4600 ± 780 nM |  | 750 ± 220 nM | > 50000 nM | 4150 ± 920 nM | 2340 ± 920 nM |  | reduced the expression of RAD51 |  |  |  |
| O=C(c1cc(Cc2n[nH]c(=O)c3ccccc23)ccc1F)N1CCN(C(=O)C2CC2)CC1 [Olaparib, olaparib, reference compound] |  |  | > 25000 nM |  | 14500 ± 2440 nM | 28000 ± 3480 nM | 8080 ± 2020 nM | 3240 ± 2200 nM |  |  | rise in the mRNA levels of CCL5 and CXCL10 | reduced the clonogenicity | this effect was not observed |
| Nc1ccccc1NC(=O)CN1CCN(C(=O)c2cc(Cc3n[nH]c(=O)c4ccccc34)ccc2F)CC1 [Compound B401] | > 10000 nM | > 10000 nM |  |  |  |  |  |  |  |  |  |  |  |
| Nc1cc(F)ccc1NC(=O)CCN1CCN(C(=O)c2cc(Cc3n[nH]c(=O)c4ccccc34)ccc2F)CC1 [Compound B502] | > 10000 nM | > 10000 nM |  |  |  |  |  |  |  |  |  |  |  |
| Nc1cc(F)ccc1NC(=O)Cc1ccc(CN2CCN(C(=O)c3cc(Cc4n[nH]c(=O)c5ccccc45)ccc3F)CC2)cc1 [Compound B202] | 160 nM | > 10000 nM | 15600 ± 3520 nM | 10.3 nM | 560 ± 100 nM | 9830 ± 750 nM | 650 ± 140 nM | 460 ± 120 nM | 34.2 nM |  |  |  |  |
| Nc1ccccc1NC(=O)/C=C/c1ccc(CN2CCN(C(=O)c3cc(Cc4n[nH]c(=O)c5ccccc45)ccc3F)CC2)cc1 [Compound B101] | 120 nM | > 10000 nM | 3620 ± 1210 nM | 13.2 nM | 300 ± 50 nM | 1450 ± 90 nM | 530 ± 80 nM | 410 ± 10 nM | 4.08 nM |  |  |  |  |
| Nc1ccccc1NC(=O)CCN1CCN(C(=O)c2cc(Cc3n[nH]c(=O)c4ccccc34)ccc2F)CC1 [Compound B501] | > 10000 nM | > 10000 nM |  |  |  |  |  |  |  |  |  |  |  |
| Nc1cc(F)ccc1NC(=O)CCCN1CCN(C(=O)c2cc(Cc3n[nH]c(=O)c4ccccc34)ccc2F)CC1 [Compound B602] | > 10000 nM | > 10000 nM |  |  |  |  |  |  |  |  |  |  |  |
